Test results published in US12655385B2, “Cell culture compositions with antioxidants and methods for polypeptide production” (Genentech, Inc., priority 2013, dated 2026).
Where a name gives a salt, the structure may show the parent alone.

Key:
IgG1 monoclonal antibody = assay: Antioxidant screening: incubation of Media 1/Media 2 mixture spiked with antibody, color intensity of purified antibody; conditions: 1X test concentration (hypotaurine 9.16 mM, taurine 5.00 mM), 5 days 37° C.; normalized to positive control
Description: For antioxidant screening, a total volume of 40 ml media was prepared by mixing 1 part basal Media 1 and 0.3 part feed Media 2 to mirror a representative ratio of media used in cell culture conditions (Table 5). […] The samples were incubated at 37° C. with shaking at 250 rpm for a five day incubation period.
After incubation, the monoclonal antibody was purified using affinity chromatography. Color intensity of the concentrated antibody composition was measured in the purified pool using an assay wherein higher numerical values indicate higher color intensity and lower numerical values indicate lower color intensity. The numerical results were normalized to the positive control, where the value for the positive control was set at 0% change in color intensity.

monoclonal antibody = assay: Screen of taurine, carnosine and aminoguanidine in culture media, relative color intensity of antibody; conditions: 27.2 g/L aminoguanidine hydrochloride, 7 days 37° C. 250 rpm (FIG. 10)
Description: In order to identify a compound that reduces in antibody compositions and works under cell culture conditions, a screen assay in cell free medium was conducted. Taurine, carnosine and aminoguanidine were chosen for screening. These compounds were dissolved in 25 mL culture media at the concentration of 1.2 g/L (taurine), 13.6 g/L (carnosine), and 27.2 g/L (aminoguanidine hydrochloride). After pH adjustment to a range from 6.8 to 7.2 and sterile filtration with Steriflip filter units (Millipore, Billerica, MA) the solution was incubated in 50 mL Falcon tubes (BD Biosciences, San Jose, CA) equipped with TubeSpin caps (TPP Techno Plastic Products AG, Trasadingen, Switzerland). CHO cells were incubated for 7 days in a moisture controlled cell culture incubator at 37° C. and 250 rpm with no protection from light to produce the monoclonal antibody.
The monoclonal antibody in the harvested cell culture fluid (HCCF) and the incubation broth was further purified with affinity chromatography. Color intensity of the concentrated antibody composition was measured in the purified pool using an assay wherein higher numerical values indicated higher color intensity and lower numerical values indicated lower color intensity.
The relative color intensity for antibodies produced in culture medium containing taurine, carnosine, or aminoguanidine are shown in FIG. 10.

[1] = tested on: antibody producing CHO cells; assay: 2-liter stirred bioreactor fed-batch cell culture in Media 1/Media 2 with hypotaurine or carboxymethylcysteine; type: cell-based, Chinese Hamster; conditions: for Growth as measured by VCC: 12.95 mM hypotaurine or 10 mM carboxymethylcysteine in Media 1 (FIG. 7A); for cell viability: 12.95 mM hypotaurine or 10 mM carboxymethylcysteine in Media 1 (FIG. 7B); for antibody titer (HPLC): 12.95 mM hypotaurine or 10 mM carboxymethylcysteine in Media 1 (FIG. 8)
Description: Antibody producing CHO cells were inoculated at approximately 1.0×10^6 cells/mL in 2-liter stirred bioreactors (Applikon, Foster City, CA) containing 1 L of basal Media 1 supplemented with 12.95 mM hypotaurine or 10 mM carboxymethylcysteine (CAS number 638-23-3). Cells were cultured in fed-batch mode with addition of 100 mL of feed Media 2 per liter of cell culture fluid at days 3, 6 and 9 for initiation of the production phase. A positive control was included by culturing cells in Media 1 and 2 without hypotaurine supplementation. The concentration of glucose was analyzed every day and if the glucose concentration fell below 2 g/L, it was replenished from a […] stock solution of glucose for prevention of glucose depletion. Reactors were equipped with calibrated dissolved oxygen, pH and temperature probes. Dissolved oxygen was controlled on-line through sparging with air and/or oxygen. pH was controlled through addition of CO2 or Na2CO3 and antifoam was added to the cultures as needed. The cell cultures were maintained at pH 7.0 and a temperature of 37° C. from days 0 through 3, and then at 35° C. after day 3. The cell cultures were agitated at 275 rpm and the dissolved oxygen level was at 30% of air saturation. Osmolality was monitored using an osmometer from Advanced Instruments (Norwood, MA). Offline pH and metabolite concentrations were also determined daily using a Nova Bioprofile 400 (Nova Biomedical, Waltham, MA). VCC and cell viability was measured daily using a ViCell® automated cell counter (Beckman Coulter, Fullerton, CA). The cell culture fluid was collected daily by centrifuging 1 mL of cell culture fluid for determination of antibody titer using high performance liquid chromatography. At the end of the cell culture duration on day 14, when the amount of protein in the culture was approximately 2-10 g/L, the cell culture fluid from all samples was harvested by centrifugation. The monoclonal antibody in the harvested cell culture fluid was purified using protein A affinity chromatography. The protein A pool was concentrated to 150 g/L using Amicon Centricon centrifugal filter devices (Millipore Corporation, Billerica, MA). Color intensity of the concentrated antibody composition was measured in the concentrated protein A pool using two different assays wherein higher numerical values indicated higher color intensity and lower numerical values indicated lower color intensity. […] This color intensity reduction was confirmed by using a second color assay which detected an approximate 17% and 13% color intensity reduction in antibody compositions isolated from cell cultured in media supplemented with hypotaurine and carboxymethylcysteine, respectively (FIG. 9B).

[2] = listed as carboxy methyl cysteine

NCCS(=O)(=O)O [Taurine, 2-aminoethane-1-sulfonic acid]
reduction of color intensity of the antibody-containing compositions (IgG1 monoclonal antibody): approximately 5%

N=C(N)NN [aminoguanidine, aminoguanidine hydrochloride]
decrease of color (monoclonal antibody): about 71%

N[C@@H](CSCC(=O)O)C(=O)O [carboxymethylcysteine, (2R)-2-amino-3-[(carboxymethyl)sulfanyl]propanoic acid]
Growth as measured by VCC [1]: comparable among all cell cultures tested
Growth as measured by VCC [1, 2]: did not compromise
cell viability [1]: comparable among all cell cultures tested
cell viability [1, 2]: did not compromise
antibody titer (HPLC) [1]: comparable levels of antibody titers
antibody titer (HPLC) [1, 2]: did not significantly reduce
color intensity reduction of antibody compositions, second color assay ([1]; 12.95 mM hypotaurine or 10 mM carboxymethylcysteine, protein A pool concentrated to 150 g/L (FIG. 9B)): ~13%
